Experimental data from US12157738B2, “Macrocyclic inhibitors of ALK, TRKA, TRKB, and ROS1” (DANA-FARBER CANCER INSTITUTE, INC., priority 2018, dated 2024).

Tests used:
[1] = molecular target: T1, Ba/F3 EML4-ALK C1156Y cells (Homo sapiens, UniProt Q9UM73, C1156Y); test: Cell viability assay (CellTiter-Glo, 72 hr); format: cell-based
T1 construct: expressed in transfected cells; host or cells: Ba/F3; the other entry of the earlier key: EML4 (Q9HC35, Echinoderm microtubule-associated protein-like 4)
T1 sequence (Q9UM73 1058-1620 C1156Y limits assumed): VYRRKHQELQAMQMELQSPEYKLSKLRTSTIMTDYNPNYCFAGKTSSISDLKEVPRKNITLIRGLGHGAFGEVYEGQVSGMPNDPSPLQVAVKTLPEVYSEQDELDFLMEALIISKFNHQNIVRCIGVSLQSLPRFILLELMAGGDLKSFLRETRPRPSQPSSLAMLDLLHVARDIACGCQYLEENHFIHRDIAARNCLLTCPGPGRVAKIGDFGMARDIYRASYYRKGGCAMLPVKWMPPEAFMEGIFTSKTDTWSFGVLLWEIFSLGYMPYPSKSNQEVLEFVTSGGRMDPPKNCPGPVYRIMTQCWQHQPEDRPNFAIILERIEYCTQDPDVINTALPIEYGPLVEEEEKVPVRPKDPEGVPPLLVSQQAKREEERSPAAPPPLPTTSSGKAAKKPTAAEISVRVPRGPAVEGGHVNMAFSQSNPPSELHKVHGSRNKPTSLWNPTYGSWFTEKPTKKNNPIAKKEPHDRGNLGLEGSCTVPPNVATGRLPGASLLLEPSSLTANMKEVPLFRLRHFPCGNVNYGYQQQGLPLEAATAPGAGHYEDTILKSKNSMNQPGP
Description: (§1) Parental Ba/F3 cells were cultured with an additional 1 ng/mL recombinant mouse IL-3 (ProSpec). […] Cell viability was evaluated using the CellTiter-Glo® Luminescent Cell Viability Assay (Promega) following the manufacturer's standards. […] Anti-proliferative best fit IC50 values were calculated by Graphpad Prism 7 software.

[2] = molecular target: T2, Ba/F3 EML4-ALK G1202R cells (Homo sapiens, UniProt Q9UM73, G1202R); test: Cell viability assay (CellTiter-Glo, 72 hr); format: cell-based
T2 construct: expressed in transfected cells; host or cells: Ba/F3; the other entry of the earlier key: EML4 (Q9HC35, Echinoderm microtubule-associated protein-like 4)
T2 sequence (Q9UM73 1058-1620 G1202R limits assumed): as the sequence (Q9UM73 1058-1620 C1156Y limits assumed) above, with Y99C, G145R counted along it
Description: as §1

[3] = molecular target: T3, CD74-NTRK1 Ba/F3 cells (Homo sapiens, UniProt P04629); test: Cell viability assay (CellTiter-Glo, 72 hr); format: cell-based; settings: for IC50: 72 hr
T3 construct: expressed in transfected cells; host or cells: Ba/F3; the other entry of the earlier key: CD74 (P04233, HLA class II histocompatibility antigen gamma chain)
T3 sequence (P04629 510-796 limits assumed): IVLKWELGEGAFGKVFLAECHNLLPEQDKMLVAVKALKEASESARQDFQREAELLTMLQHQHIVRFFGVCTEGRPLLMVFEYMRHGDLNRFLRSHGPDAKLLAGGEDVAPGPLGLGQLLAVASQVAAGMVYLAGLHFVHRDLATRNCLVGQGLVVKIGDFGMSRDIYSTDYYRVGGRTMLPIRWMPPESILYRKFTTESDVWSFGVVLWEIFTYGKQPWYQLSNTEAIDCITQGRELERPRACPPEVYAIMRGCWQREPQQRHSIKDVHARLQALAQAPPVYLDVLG
Description: as §1

[4] = molecular target: T4, Ba/F3 EML4-ALK L1196M cells (Homo sapiens, UniProt Q9UM73, L1196M); test: Cell viability assay (CellTiter-Glo, 72 hr); format: cell-based
T4 construct: expressed in transfected cells; host or cells: Ba/F3; the other entry of the earlier key: EML4 (Q9HC35, Echinoderm microtubule-associated protein-like 4)
T4 sequence (Q9UM73 1058-1620 L1196M limits assumed): as the sequence (Q9UM73 1058-1620 C1156Y limits assumed) above, with Y99C, L139M counted along it
Description: as §1

[5] = molecular target: T5, Ba/F3 EML4-ALK cells (Homo sapiens, UniProt Q9UM73); test: Cell viability assay (CellTiter-Glo, 72 hr); format: cell-based
T5 construct: expressed in transfected cells; host or cells: Ba/F3; the other entry of the earlier key: EML4 (Q9HC35, Echinoderm microtubule-associated protein-like 4)
T5 sequence (Q9UM73 1058-1620 limits assumed): as the sequence (Q9UM73 1058-1620 C1156Y limits assumed) above, with Y99C counted along it
Description: as §1

[6] = molecular target: T6, ROS1 (Homo sapiens, UniProt P08922); test: Invitrogen Z'-lyte or LanthaScreen kinase IC50 assay; format: biochemical
T6 construct: purchased Invitrogen
Description: (§2) The IC50 values were generated from Invitrogen™'s Z'-lytet™ or LanthaScreen™ assays.

[7] = molecular target: T7, ALK (Homo sapiens, UniProt Q9UM73); test: as above; format: biochemical
T7 construct: similar enzymatic potency was observed against full length ALK and ALK mutants; purchased Invitrogen
T7 sequence (Q9UM73 19-1620): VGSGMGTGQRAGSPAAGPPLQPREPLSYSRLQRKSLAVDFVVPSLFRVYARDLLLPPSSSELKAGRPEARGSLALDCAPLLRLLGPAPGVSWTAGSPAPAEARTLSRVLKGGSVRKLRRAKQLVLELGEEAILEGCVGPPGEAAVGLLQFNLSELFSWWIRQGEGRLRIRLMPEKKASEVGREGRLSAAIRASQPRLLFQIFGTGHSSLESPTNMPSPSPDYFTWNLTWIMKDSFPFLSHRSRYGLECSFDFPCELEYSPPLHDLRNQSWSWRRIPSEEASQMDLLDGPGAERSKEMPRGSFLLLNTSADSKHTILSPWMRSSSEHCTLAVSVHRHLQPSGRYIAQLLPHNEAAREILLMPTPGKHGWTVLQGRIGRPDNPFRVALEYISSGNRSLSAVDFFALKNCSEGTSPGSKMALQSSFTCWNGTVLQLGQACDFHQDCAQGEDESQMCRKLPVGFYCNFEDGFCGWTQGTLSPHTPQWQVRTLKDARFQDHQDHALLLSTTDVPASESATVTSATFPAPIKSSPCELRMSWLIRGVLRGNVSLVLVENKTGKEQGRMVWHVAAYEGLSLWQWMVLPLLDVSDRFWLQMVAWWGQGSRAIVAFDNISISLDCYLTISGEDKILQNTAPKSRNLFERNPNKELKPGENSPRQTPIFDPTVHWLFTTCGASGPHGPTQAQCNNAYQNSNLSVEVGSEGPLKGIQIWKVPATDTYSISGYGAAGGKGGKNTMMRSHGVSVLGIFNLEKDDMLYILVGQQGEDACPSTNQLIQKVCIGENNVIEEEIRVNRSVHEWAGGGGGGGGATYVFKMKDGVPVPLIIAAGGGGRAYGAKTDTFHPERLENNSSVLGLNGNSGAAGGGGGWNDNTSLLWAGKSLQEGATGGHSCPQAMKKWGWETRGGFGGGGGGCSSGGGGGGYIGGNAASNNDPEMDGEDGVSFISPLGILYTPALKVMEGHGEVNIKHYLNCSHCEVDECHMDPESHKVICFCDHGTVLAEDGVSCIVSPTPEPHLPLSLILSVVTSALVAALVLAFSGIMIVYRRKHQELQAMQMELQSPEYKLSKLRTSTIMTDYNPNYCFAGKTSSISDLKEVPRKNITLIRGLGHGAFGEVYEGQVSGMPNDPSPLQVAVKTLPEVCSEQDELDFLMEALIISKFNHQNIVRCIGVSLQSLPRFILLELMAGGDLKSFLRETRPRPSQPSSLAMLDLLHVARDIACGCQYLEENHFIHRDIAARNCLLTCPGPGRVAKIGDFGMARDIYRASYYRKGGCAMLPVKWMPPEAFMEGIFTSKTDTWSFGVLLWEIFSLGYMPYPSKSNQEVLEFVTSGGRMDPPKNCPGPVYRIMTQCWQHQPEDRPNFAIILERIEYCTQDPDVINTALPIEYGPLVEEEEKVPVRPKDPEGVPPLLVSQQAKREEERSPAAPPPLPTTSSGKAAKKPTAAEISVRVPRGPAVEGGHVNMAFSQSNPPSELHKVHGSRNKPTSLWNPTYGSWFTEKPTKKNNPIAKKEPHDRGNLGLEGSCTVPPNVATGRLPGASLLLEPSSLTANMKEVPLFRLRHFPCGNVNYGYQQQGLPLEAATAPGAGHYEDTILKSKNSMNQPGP
Description: as §2

[8] = molecular target: T8, TRK1 (Homo sapiens, UniProt P04629); test: as above; format: biochemical
T8 construct: purchased Invitrogen
T8 sequence (P04629 33-796): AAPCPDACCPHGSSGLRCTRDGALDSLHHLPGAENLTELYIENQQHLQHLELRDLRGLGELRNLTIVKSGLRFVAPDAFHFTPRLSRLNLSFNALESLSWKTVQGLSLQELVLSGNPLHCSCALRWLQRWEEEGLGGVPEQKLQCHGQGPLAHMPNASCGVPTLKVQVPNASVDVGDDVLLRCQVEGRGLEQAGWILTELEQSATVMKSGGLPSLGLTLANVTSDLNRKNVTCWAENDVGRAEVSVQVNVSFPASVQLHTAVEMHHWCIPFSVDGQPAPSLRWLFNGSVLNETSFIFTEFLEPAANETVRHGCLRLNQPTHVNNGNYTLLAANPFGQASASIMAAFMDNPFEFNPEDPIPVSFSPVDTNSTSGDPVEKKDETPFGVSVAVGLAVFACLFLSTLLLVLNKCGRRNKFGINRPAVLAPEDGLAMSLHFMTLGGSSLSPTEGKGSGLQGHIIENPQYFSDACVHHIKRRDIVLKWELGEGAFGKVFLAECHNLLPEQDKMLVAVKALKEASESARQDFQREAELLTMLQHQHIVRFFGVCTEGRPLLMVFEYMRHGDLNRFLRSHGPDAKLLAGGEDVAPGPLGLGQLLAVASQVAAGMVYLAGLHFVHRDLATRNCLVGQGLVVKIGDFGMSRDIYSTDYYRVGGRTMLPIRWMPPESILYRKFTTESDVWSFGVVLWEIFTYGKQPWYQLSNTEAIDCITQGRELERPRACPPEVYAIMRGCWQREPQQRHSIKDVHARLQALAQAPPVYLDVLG
Description: as §2

[9] = molecular target: T9, TRK2 (Homo sapiens, UniProt Q16620); test: as above; format: biochemical
T9 construct: purchased Invitrogen
T9 sequence (Q16620 32-822): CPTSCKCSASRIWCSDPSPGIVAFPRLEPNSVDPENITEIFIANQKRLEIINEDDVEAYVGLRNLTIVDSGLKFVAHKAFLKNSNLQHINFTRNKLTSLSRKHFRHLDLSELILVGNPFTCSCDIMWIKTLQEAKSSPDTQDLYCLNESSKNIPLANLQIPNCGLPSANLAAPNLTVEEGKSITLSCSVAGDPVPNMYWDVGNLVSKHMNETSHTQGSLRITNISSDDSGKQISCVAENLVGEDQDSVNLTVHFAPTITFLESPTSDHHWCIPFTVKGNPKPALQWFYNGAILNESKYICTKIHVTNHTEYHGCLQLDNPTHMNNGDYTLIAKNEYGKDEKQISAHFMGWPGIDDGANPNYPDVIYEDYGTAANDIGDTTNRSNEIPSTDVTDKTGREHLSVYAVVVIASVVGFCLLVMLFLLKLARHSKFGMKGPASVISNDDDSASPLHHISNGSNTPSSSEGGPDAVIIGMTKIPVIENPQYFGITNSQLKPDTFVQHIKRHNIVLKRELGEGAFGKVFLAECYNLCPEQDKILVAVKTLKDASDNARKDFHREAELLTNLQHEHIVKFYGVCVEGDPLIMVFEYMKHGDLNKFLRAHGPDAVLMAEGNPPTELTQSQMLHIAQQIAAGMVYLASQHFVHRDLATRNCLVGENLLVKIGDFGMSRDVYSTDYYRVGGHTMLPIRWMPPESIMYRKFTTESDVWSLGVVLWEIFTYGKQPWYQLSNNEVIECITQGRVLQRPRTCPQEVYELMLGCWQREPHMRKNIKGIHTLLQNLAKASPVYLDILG
Description: as §2

[10] = molecular target: T10, TRK3 (Homo sapiens, UniProt Q16288); test: as above; format: biochemical
T10 construct: purchased Invitrogen
T10 sequence (Q16288 32-839): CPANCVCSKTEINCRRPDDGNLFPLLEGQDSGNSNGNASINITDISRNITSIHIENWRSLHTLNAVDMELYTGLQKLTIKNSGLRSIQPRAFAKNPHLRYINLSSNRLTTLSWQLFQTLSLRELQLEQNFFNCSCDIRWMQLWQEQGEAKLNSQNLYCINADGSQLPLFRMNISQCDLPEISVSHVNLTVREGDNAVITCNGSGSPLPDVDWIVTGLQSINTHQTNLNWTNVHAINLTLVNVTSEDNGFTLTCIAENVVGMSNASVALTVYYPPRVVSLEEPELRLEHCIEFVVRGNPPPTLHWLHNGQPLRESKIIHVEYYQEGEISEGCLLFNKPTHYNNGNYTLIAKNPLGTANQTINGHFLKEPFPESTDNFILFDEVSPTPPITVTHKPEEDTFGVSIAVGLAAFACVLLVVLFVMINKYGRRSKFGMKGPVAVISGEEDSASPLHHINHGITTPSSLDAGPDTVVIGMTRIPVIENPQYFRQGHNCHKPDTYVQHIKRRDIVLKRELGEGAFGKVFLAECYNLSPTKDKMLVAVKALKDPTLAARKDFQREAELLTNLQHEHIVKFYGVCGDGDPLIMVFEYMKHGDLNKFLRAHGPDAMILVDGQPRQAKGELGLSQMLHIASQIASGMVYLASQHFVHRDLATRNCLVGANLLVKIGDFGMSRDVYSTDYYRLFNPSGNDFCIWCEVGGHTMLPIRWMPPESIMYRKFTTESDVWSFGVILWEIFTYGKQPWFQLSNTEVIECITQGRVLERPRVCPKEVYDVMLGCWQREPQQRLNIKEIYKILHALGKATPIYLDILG
Description: as §2

[11] = molecular target: T11, ALK L1196M (Homo sapiens, UniProt Q9UM73, L1196M); test: as above; format: biochemical
T11 construct: purchased Invitrogen
T11 sequence (Q9UM73 19-1620 L1196M): as the sequence (Q9UM73 19-1620) above, with L1178M counted along it
Description: as §2

[12] = test system: tel-TRK fusion Ba/F3 cell lines; test: IC50 in TEL-TRK Ba/F3 cells; format: cell-based; settings: all 3 tel-TRK fusion Ba/F3 cell lines; FIG. 5
Description: The IC50 values were generated using ACD/Labs GraphPad Prism (version 7).

[13] = test system: Parental WT Ba/F3 cells; test: Cell viability assay (CellTiter-Glo, 72 hr); format: cell-based; settings: for IC50: Mus musculus, BaF3, 72 hr
Description: (§3) Ba/F3 cell lines were cultured in RPMI-1640 media containing L-glutamine, supplemented with 10% fetal bovine serum (FBS) and 1% penicillin/streptomycin. Parental Ba/F3 cells were cultured with an additional 1 ng/mL recombinant mouse IL-3 (ProSpec). Mycoplasma testing was performed on a monthly basis and all lines were negative. Cell viability was evaluated using the CellTiter-Glo® Luminescent Cell Viability Assay (Promega) following the manufacturer's standards. 12-point dose titrations were tested in triplicate from 10000 nM to 0.056 nM over 72 hr. Anti-proliferative best fit IC50 values were calculated by Graphpad Prism 7 software.
The experimental protocol was as in Example 11.

[14] = test system: ALK wild type, ALK mutants, TRKA, TRKB, TRKC and ROS1; test: AMBIT profile, DiscoverX KINOMEscan Assay platform; format: binding; settings: for Ambit profile potency and selectivity: Example 10, FIG. 7A and 7B
Description: The AMBIT data were generated using DiscoverX KINOMEscan® Assay platform.
The experimental protocol was as in Example 9.

[15] = test system: Ba/F3 cell lines expressing EML4-ALK and EML4-ALK with secondary mutations; test: Anti-proliferation assay in EML4-ALK Ba/F3 cell lines; format: cell-based
Description: as §3

| Compound | IC50 [1] [nM] | IC50 [2] [nM] | IC50 [3] [nM] | activity relative to entrectinib in CD74-NTRK1 expressing Ba/F3 cells ([3]; in words) | IC50 [4] [nM] | IC50 [5] [nM] | IC50 [6] [nM] | IC50 [7] [nM] | IC50 [8] [nM] | IC50 [9] [nM] | IC50 [10] [nM] | IC50 [11] [nM] | potency (IC50) relative to entrectinib in tel-TRK fusion Ba/F3 cell lines [12] | IC50 [13] [nM] | non-specific activity in parental Ba/F3 cells, compared in words [13] | Ambit profile selectivity (percent activity remaining) ([14]; Example 9, FIG. 6) | Ambit profile potency and selectivity [14] | anti-proliferative activity relative to lorlatinib ([15]; Example 11, FIG. 1) | activity relative to lorlatinib and JH-XIII-157-2 ([15]; Example 12, FIG. 2A-2D, Tables 2-5) |
| --- | --- | --- | --- | --- | --- | --- | --- | --- | --- | --- | --- | --- | --- | --- | --- | --- | --- | --- | --- |
| CN1Cc2nn(C)cc2-c2cnc(N)c(c2)N2CCC[C@@H]2c2cc(F)ccc2C1=O [Compound I-1a, (R)-26-amino-45-fluoro-11,6-dimethyl-11H-6-aza-2(3,5)-pyridina-1(4,3)-pyrazola-3(1,2)-pyrrolidina-4(1,3)-benzenacycloheptaphan-5-one] | 151 | 1220 | 0.13 | entrectinib like activity | 144 | 23.4 | 1.3 | 12 | 3 | 0.5 | 0.7 | 6 | more potent than entrectinib | 19000 | less non-specific activity than entrectinib | quite selective toward ALK wild type, ALK mutants as well as TRKA, TRKB, TRKC and ROS1 | very potent and selective for ALK, TRKA, TRKB, and TRKC | lower activity | lower activity |
| COc1c2c(nn1C)CN(C)C(=O)c1ccc(F)cc1[C@H]1CCCN1c1cc-2cnc1N [Compound I-1b, (R)-26-amino-45-fluoro-15-methoxy-11,6-dimethyl-11H-6-aza-2(3,5)-pyridina-1(4,3)-pyrazola-3(1,2)-pyrrolidina-4(1,3)-benzenacycloheptaphan-5-one] |  |  |  |  |  |  | 0.9 | 9 | 4 | 0.9 | 0.7 | 20 |  |  |  |  | very potent and selective for ALK, TRKA, TRKB, and TRKC |  |  |
| Cc1c2c(nn1C)CN(C)C(=O)c1ccc(F)cc1[C@H]1CCCN1c1cc-2cnc1N [Compound I-1c, (R)-2^6-amino-4^5-fluoro-1^1,1^5,6-trimethyl-1^1H-6-aza-2(3,5)-pyridina-1(4,3)-pyrazola-3(1,2)-pyrrolidina-4(1,3)-benzenacycloheptaphan-5-one] |  |  |  |  |  |  | 0.6 | 5 | 1 | < 0.5 | 0.5 | 3 |  |  |  |  | very potent and selective for ALK, TRKA, TRKB, and TRKC |  |  |
| CN1Cc2nn(C)c(C#N)c2-c2cnc(N)c(c2)N2CCC[C@@H]2c2cc(F)ccc2C1=O [Compound I-1d, (R)-2^6-amino-4^5-fluoro-1,6-dimethyl-5-oxo-1^1H-6-aza-2(3,5)-pyridina-1(4,3)-pyrazola-3(1,2)-pyrrolidina-4(1,3)-benzenacycloheptaphane-15-carbonitrile] |  |  |  |  |  |  | 1 | 7 | 6 | 5 | 2 | 3 |  |  |  |  | very potent and selective for ALK, TRKA, TRKB, and TRKC |  |  |
| Cn1cc2c(n1)CN(C1CC1)C(=O)c1ccc(F)cc1[C@H]1CCCN1c1cc-2cnc1N [Compound I-1e, (R)-2^6-amino-6-cyclopropyl-4^5-fluoro-1^1-methyl-1^1H-6-aza-2(3,5)-pyridina-1(4,3)-pyrazola-3(1,2)-pyrrolidina-4(1,3)-benzenacycloheptaphan-5-one] |  |  |  |  |  |  | 0.7 | 6 | 2 | 0.7 | 0.7 | 6 |  |  |  |  |  |  |  |
| CN1CCN(c2ccc(C(=O)Nc3n[nH]c4ccc(Cc5cc(F)cc(F)c5)cc34)c(NC3CCOCC3)c2)CC1 [Entrectinib] |  |  |  |  |  |  |  |  |  |  |  |  |  | 2020 | more active than compound I-1a |  |  |  |  |
| C[C@H]1Oc2cc(cnc2N)-c2c(nn(C)c2C#N)CN(C)C(=O)c2ccc(F)cc21 [Lorlatinib, reference compound] |  |  | 66.9 |  |  |  |  |  |  |  |  |  |  | 18900 |  |  |  |  |  |
